Laboratory results as given in US10669275B2 (priority 2015, dated 2020).

Legend:
[1] = at about pH 8; cited from earlier work
[2] = 3 tons pressure 1 min; strong grinding dry or with a drop of water, ethanol or isopropanol; 100° C. for 30 minutes; 1 week 100% relative humidity at room temperature
Experimental: The analysis of was performed on ARL (SCINTAG) powder X-Ray diffractometer model X'TRA equipped with a solid stage detector.
Scanning parameters: range: 2-40 degrees two-theta; scan mode: continuous scan; step size: 0.05°, and a rate of 3 deg/min.

[3] = twelve weeks at 40° C. and 75% relative humidity
[4] = wettability by contact angle measurement; format: physicochemical; conditions: water drops (2 μL) on pellet pressed at 2 t*cm^−2
Experimental: The wettability of the below compounds was determined by contact angle measurement. For this purpose, the substances were pressed (2 t*cm^−2) to a pellet. On each pellet were placed three water drops (2 μL) on three individual measurement points and the contact angle was measured with the apparatus OCA40 (DataPhysics Instruments) on two sides of the drop.

## C=CC(=O)N1CCC[C@@H](n2nc(-c3ccc(Oc4ccccc4)cc3)c3c(N)ncnc32)C1 [Ibrutinib free base form A, 1-[(3R)-3[4-Amino-3-(4-phenoxyphenyl)-1H-pyrazolo[3,4-d]pyrimidin-1-yl]piperidin-1-yl]prop-2-en-lone]
[1]
  observed aqueous solubility: about 0.013 mg/ml

## C=CC(=O)N1CCCC(n2nc(-c3ccc(Oc4ccccc4)cc3)c3c(N)ncnc32)C1.C=CC(=O)N1CCCC(n2nc(-c3ccc(Oc4ccccc4)cc3)c3c(N)ncnc32)C1.O=C(O)C=CC(=O)O (stereo not shown) [ibrutinib:fumaric acid]
[2]
  XRPD pattern after stress-tests: No change was observed in the XRPD pattern

## C=CC(=O)N1CCC[C@@H](n2nc(-c3ccc(Oc4ccccc4)cc3)c3c(N)ncnc32)C1 [Ibrutinib Form E, 1-[(3R)-3[4-Amino-3-(4-phenoxyphenyl)-1H-pyrazolo[3,4-d]pyrimidin-1-yl]piperidin-1-yl]prop-2-en-lone]
[3]
  solid form after storage (XRPD, FIG. 15): transformed into ibrutinib Form A

## C=CC(=O)N1CCC[C@@H](n2nc(-c3ccc(Oc4ccccc4)cc3)c3c(N)ncnc32)C1.C=CC(=O)N1CCC[C@@H](n2nc(-c3ccc(Oc4ccccc4)cc3)c3c(N)ncnc32)C1.O=C(O)CCC(=O)O [ibrutinib:succinic acid]
[4]
  contact angle θ: incapable of measurement*
